Reference: ChEMBL document CHEMBL5360624, “Exploitation of Proximity-Mediated Effects in Drug Discovery: An Update of Recent Research Highlights in Perturbing Pathogenic Proteins and Correlated Issues” (J Med Chem, 2023)
Values belong to the compound of their own block, whether it stands above or below them.

What was measured:
[1] = target: T1, von Hippel-Lindau disease tumor suppressor/SWI/SNF-related matrix-associated actin-dependent regulator of chromatin subfamily A member 2 (Homo sapiens, UniProt P51531+P40337); assay: Protac activity at VHL/SMARCA2 (unknown origin) assessed as degradation of SMARCA2; assay type: protein assay
Target sequence in this assay (P51531 whole entry): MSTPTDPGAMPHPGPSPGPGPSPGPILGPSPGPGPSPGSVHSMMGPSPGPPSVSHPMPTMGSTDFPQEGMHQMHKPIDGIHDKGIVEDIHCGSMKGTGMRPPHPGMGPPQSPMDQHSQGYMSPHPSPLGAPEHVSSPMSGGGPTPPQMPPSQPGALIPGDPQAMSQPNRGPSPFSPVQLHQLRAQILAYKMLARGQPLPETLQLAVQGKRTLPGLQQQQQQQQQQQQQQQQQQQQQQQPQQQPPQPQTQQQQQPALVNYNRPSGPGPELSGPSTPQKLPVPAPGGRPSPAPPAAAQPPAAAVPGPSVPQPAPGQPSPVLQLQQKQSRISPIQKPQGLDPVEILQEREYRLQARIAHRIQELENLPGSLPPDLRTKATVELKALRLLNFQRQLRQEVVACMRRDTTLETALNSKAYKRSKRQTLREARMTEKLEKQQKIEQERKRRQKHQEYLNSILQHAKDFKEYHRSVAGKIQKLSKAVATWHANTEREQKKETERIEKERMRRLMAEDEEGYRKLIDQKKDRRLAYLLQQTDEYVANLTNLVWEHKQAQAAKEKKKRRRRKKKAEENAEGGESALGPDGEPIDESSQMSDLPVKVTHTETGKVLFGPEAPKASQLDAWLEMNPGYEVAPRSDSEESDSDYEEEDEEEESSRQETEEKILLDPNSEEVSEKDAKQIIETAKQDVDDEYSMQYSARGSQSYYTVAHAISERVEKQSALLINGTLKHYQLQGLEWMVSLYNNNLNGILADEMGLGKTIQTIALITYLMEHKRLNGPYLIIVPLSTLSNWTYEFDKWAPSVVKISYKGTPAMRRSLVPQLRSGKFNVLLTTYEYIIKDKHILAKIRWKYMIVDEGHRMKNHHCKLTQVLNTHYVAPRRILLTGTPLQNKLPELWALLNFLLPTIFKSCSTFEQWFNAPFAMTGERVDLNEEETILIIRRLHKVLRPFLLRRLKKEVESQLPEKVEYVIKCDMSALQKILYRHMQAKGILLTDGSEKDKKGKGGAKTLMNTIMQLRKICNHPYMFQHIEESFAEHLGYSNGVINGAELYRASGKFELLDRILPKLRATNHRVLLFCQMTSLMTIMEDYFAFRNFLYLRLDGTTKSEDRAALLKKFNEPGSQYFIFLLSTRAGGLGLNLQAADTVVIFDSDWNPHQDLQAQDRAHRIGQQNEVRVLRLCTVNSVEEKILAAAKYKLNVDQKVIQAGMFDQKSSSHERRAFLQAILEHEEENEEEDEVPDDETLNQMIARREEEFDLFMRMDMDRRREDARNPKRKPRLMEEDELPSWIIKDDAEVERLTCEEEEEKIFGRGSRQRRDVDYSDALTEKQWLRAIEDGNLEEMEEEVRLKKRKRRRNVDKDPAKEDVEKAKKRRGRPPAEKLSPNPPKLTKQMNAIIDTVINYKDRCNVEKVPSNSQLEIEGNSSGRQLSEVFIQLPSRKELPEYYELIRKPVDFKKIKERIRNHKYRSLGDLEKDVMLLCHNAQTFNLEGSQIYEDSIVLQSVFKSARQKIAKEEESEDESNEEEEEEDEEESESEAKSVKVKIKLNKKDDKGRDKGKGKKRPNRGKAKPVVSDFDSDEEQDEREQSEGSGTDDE
Target sequence in this assay (P40337 whole entry): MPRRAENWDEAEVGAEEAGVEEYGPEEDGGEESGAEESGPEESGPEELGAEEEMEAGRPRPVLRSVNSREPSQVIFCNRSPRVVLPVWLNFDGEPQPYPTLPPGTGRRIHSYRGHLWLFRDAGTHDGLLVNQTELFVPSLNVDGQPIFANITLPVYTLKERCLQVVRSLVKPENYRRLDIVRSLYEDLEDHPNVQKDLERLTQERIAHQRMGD

[2] = target: T1, von Hippel-Lindau disease tumor suppressor/SWI/SNF-related matrix-associated actin-dependent regulator of chromatin subfamily A member 2; assay: Protac activity at VHL/SMARCA2 (unknown origin) assessed as degradation of SMARCA2 relative to control; assay type: protein assay
Target sequence in this assay (P40337 whole entry, looked up): as the sequence (P40337 whole entry) above
Target sequence in this assay (P51531 whole entry, looked up): as the sequence (P51531 whole entry) above

[3] = target: SWI/SNF-related matrix-associated actin-dependent regulator of chromatin subfamily A member 2 (Homo sapiens, UniProt P51531); assay: Inhibition of SMARCA2 (unknown origin) assessed as dissociation constant
Sequence of SWI/SNF-related matrix-associated actin-dependent regulator of chromatin subfamily A member 2 (P51531 whole entry): as above

[4] = target: von Hippel-Lindau disease tumor suppressor/SWI/SNF-related matrix-associated actin-dependent regulator of chromatin subfamily A member 4 (Homo sapiens, UniProt P51532+P40337); assay: Protac activity at VHL/SMARCA4 in human RKO cells assessed as degradation of SMARCA4; assay type: cell-based
Sequence of von Hippel-Lindau disease tumor suppressor/SWI/SNF-related matrix-associated actin-dependent regulator of chromatin subfamily A member 4 (P51532 whole entry): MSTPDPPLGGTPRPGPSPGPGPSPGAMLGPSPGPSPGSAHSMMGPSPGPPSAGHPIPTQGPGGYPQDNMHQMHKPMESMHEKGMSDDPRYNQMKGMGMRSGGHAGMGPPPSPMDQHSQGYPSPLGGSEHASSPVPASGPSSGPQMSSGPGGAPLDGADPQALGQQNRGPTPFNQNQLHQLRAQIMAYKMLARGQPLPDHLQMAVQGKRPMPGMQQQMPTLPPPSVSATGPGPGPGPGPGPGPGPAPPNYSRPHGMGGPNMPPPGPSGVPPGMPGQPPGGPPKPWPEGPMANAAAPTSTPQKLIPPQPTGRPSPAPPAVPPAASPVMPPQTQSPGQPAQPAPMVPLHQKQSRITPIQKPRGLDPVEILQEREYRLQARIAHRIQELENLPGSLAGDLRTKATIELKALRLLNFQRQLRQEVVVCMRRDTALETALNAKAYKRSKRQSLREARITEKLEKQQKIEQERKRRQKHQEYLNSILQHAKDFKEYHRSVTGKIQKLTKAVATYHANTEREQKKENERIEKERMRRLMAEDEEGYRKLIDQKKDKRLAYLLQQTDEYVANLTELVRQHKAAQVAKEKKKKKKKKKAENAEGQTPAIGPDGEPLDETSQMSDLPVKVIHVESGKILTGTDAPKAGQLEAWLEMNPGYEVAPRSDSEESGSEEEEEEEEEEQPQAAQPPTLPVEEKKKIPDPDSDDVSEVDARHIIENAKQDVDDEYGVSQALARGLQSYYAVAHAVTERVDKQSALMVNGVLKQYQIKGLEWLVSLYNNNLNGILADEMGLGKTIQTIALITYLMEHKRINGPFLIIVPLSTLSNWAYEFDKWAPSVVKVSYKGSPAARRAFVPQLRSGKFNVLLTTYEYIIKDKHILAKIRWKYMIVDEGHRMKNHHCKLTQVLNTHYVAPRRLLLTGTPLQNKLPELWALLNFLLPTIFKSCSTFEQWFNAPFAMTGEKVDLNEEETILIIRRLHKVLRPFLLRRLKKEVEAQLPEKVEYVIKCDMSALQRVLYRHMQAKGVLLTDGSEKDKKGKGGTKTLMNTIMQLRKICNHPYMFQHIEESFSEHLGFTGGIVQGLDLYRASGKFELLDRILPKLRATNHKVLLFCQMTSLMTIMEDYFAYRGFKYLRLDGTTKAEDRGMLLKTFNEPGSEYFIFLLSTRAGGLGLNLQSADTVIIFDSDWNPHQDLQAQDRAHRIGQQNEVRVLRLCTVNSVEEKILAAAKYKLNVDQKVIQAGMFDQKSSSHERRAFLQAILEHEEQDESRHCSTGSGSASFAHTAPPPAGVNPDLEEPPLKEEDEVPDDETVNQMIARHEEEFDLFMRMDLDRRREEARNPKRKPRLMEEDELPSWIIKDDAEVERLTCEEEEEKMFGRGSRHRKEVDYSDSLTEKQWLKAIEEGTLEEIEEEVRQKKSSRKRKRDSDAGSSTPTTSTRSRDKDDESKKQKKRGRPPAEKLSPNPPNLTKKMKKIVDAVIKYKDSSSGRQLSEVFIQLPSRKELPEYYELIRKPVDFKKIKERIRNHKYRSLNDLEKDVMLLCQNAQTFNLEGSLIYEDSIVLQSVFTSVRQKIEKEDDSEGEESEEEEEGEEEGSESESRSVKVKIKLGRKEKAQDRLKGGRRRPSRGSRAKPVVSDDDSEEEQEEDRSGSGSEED
Sequence of von Hippel-Lindau disease tumor suppressor/SWI/SNF-related matrix-associated actin-dependent regulator of chromatin subfamily A member 4 (P40337 whole entry): as the sequence (P40337 whole entry) above

[5] = Oral bioavailability in NMRI mouse; assay type: ADME, organism-based; details: in vivo
[6] = target: T1, von Hippel-Lindau disease tumor suppressor/SWI/SNF-related matrix-associated actin-dependent regulator of chromatin subfamily A member 2; assay: Protac activity at VHL/SMARCA2 in human RKO cells assessed as degradation of SMARCA2; assay type: cell-based
Target sequence in this assay (P51531 whole entry): as the sequence (P51531 whole entry) above
Target sequence in this assay (P40337 whole entry): as the sequence (P40337 whole entry) above

[7] = organism: Homo sapiens; assay: Selectivity index, ratio of DC50 for VHL/SMARCA2 in human RKO cells to DC50 for VHL/SMARCA4 in human RKO cells; assay type: cell-based

DC50 [1]: 78 nM | Emax [2]: 46%
SMILES: Cc1ncsc1-c1ccc(CNC(=O)[C@@H]2C[C@@H](O)CN2C(=O)[C@@H](NC(=O)C2(F)CC2)C(C)(C)C)c(OCCCN2CCC(c3ccc4c(c3)n(C3CCCC3)c3nc(=O)c5c(Br)cccc5n43)CC2)c1

Kd [3]: 46 nM
SMILES: O=c1nc2n(C3CCCC3)c3cc(C4CCNCC4)ccc3n2c2cccc(Br)c12

DC50 [4]: 32 nM | bioavailability [5]: 22% | DC50 [6]: 1 nM
SMILES: Cc1ncsc1-c1ccc(CNC(=O)[C@@H]2C[C@@H](O)CN2C(=O)[C@@H](NC(=O)C2(F)CC2)C(C)(C)C)c(CC[C@H](C)CCN2CCC(c3ccc4c(c3)n(C3CCCC3)c3nc(=O)c5c(Br)cccc5n43)CC2)c1
Selectivity Index [7]: > 30
